# Reference: PubChem BioAssay AID270 (DTP/NCI, 2004)
# Values joined by “and” are separate entries in the source; they are usually repeats but may differ in a detail not shown here. Equal entries are not always repeated. Records with an inconclusive call do not appear.
# Test system: BDF1 mice, s.c. Lewis lung carcinoma, T/C %
# Test: NCI In Vivo Anticancer Drug Screen. Data for tumor model Lewis Lung Carcinoma (subcutaneous) in B6D2F1 (BDF1) mice
# How it was run: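 Readout: survival or tumor size, expressed as treated (T) over vehicle control (C). Transplantable tumor implanted in mice; compound given to the treated group.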
# [1] = endpoint: median survival time, dose: 1.0 mg/kg/injection, schedule: Q01DX009 (ip), vehicle: saline, higher = longer survival
# [2] = endpoint: mean tumor weight, dose: 50.0 mg/kg/injection, schedule: Q01DX011 (ip), vehicle: saline, higher = larger tumour
# [3] = endpoint: mean tumor weight, dose: 100.0 mg/kg/injection, schedule: Q01DX011 (ip), vehicle: saline, higher = larger tumour
# [4] = endpoint: mean tumor weight, dose: 200.0 mg/kg/injection, schedule: Q01DX011 (ip), vehicle: saline, higher = larger tumour
# [5] = endpoint: mean tumor weight, dose: 400.0 mg/kg/injection, schedule: Q01DX011 (ip), vehicle: saline, higher = larger tumour
# [6] = endpoint: mean tumor weight, dose: 25.0 mg/kg/injection, schedule: Q01DX011 (ip), vehicle: saline, higher = larger tumour
smiles,measurement,setting,value
CC(=O)Nc1c(Cl)cc2c(c1Cl)Cc1cc([N+](=O)[O-])ccc1-2,T/C,"endpoint: mean tumor weight, dose: 20.0 mg/kg/injection, schedule: Q01DX011 (ip), vehicle: carboxymethylcellulose (CMC), higher = larger tumour",55 % of control
same,T/C,"endpoint: mean tumor weight, dose: 40.0 mg/kg/injection, schedule: Q01DX011 (ip), vehicle: carboxymethylcellulose (CMC), higher = larger tumour",32 % of control
O=C(O)O.[Cd],T/C,"endpoint: mean tumor weight, dose: 0.5 mg/kg/injection, schedule: Q01DX011 (ip), vehicle: carboxymethylcellulose (CMC), higher = larger tumour",72 % of control
O=c1cc[nH]c(=O)o1,T/C,"endpoint: median survival time, dose: 1.5 mg/kg/injection, schedule: Q01DX009 (ip), vehicle: water, higher = longer survival",102 % of control
same,T/C,"endpoint: median survival time, dose: 3.0 mg/kg/injection, schedule: Q01DX009 (ip), vehicle: water, higher = longer survival",95 % of control
same,T/C,"endpoint: median survival time, dose: 3.12 mg/kg/injection, schedule: Q01DX008 (ip), vehicle: water, higher = longer survival",93 % of control
same,T/C,"endpoint: median survival time, dose: 3.12 mg/kg/injection, schedule: Q01DX009 (ip), vehicle: water, higher = longer survival",114 % of control
same,T/C,"endpoint: median survival time, dose: 6.0 mg/kg/injection, schedule: Q01DX009 (ip), vehicle: water, higher = longer survival",94 % of control
same,T/C,"endpoint: median survival time, dose: 6.25 mg/kg/injection, schedule: Q01DX008 (ip), vehicle: water, higher = longer survival",118 % of control
same,T/C,"endpoint: median survival time, dose: 6.25 mg/kg/injection, schedule: Q01DX009 (ip), vehicle: water, higher = longer survival",108 % of control and 243 % of control
same,T/C,"endpoint: median survival time, dose: 12.0 mg/kg/injection, schedule: Q01DX009 (ip), vehicle: water, higher = longer survival",106 % of control and 108 % of control
same,T/C,"endpoint: median survival time, dose: 12.5 mg/kg/injection, schedule: Q01DX008 (ip), vehicle: water, higher = longer survival",114 % of control
same,T/C,"endpoint: median survival time, dose: 12.5 mg/kg/injection, schedule: Q01DX009 (ip), vehicle: water, higher = longer survival",103 % of control and 243 % of control
same,T/C,"endpoint: median survival time, dose: 24.0 mg/kg/injection, schedule: Q01DX009 (ip), vehicle: water, higher = longer survival",98 % of control and 116 % of control
same,T/C,"endpoint: median survival time, dose: 25.0 mg/kg/injection, schedule: Q01DX008 (ip), vehicle: water, higher = longer survival",112 % of control
same,T/C,"endpoint: median survival time, dose: 25.0 mg/kg/injection, schedule: Q01DX009 (ip), vehicle: water, higher = longer survival",107 % of control
NC(=S)N/N=C\c1ncnc2ccccc12,T/C,"endpoint: median survival time, dose: 1.6 mg/kg/injection, schedule: Q01DX009 (ip), vehicle: Klucel (hydroxypropylcellulose) (HPC), higher = longer survival",104 % of control
same,T/C,"endpoint: median survival time, dose: 3.12 mg/kg/injection, schedule: Q01DX009 (ip), vehicle: Klucel (hydroxypropylcellulose) (HPC), higher = longer survival",103 % of control
same,T/C,"endpoint: median survival time, dose: 6.25 mg/kg/injection, schedule: Q01DX009 (ip), vehicle: Klucel (hydroxypropylcellulose) (HPC), higher = longer survival",96 % of control and 108 % of control
CCCCCCCCCCCCCCCCC(C(=O)O)C(O)(CC(=O)O)C(=O)O (centres undefined),T/C,"endpoint: mean tumor weight, dose: 22.0 mg/kg/injection, schedule: Q01DX011 (ip), vehicle: carboxymethylcellulose (CMC), higher = larger tumour",64 % of control
same,T/C,"endpoint: mean tumor weight, dose: 35.0 mg/kg/injection, schedule: Q01DX011 (ip), vehicle: carboxymethylcellulose (CMC), higher = larger tumour",68 % of control
same,T/C,"endpoint: mean tumor weight, dose: 50.0 mg/kg/injection, schedule: Q01DX011 (ip), vehicle: carboxymethylcellulose (CMC), higher = larger tumour",46 % of control
COc1ccccc1NC(=O)CSC(N)=O,T/C,"endpoint: mean tumor weight, dose: 125.0 mg/kg/injection, schedule: Q01DX011 (ip), vehicle: carboxymethylcellulose (CMC), higher = larger tumour",97 % of control
same,T/C,"endpoint: mean tumor weight, dose: 250.0 mg/kg/injection, schedule: Q01DX011 (ip), vehicle: carboxymethylcellulose (CMC), higher = larger tumour",47 % of control
CC[C@](O)(C(=O)O)c1cc2n(c(=O)c1CO)Cc1cc3ccccc3nc1-2,T/C,[1],117 % of control
same,T/C,"endpoint: median survival time, dose: 2.0 mg/kg/injection, schedule: Q01DX009 (ip), vehicle: saline, higher = longer survival",92 % of control
CNC(=O)Nc1ccccc1C(=O)NN,T/C,"endpoint: median survival time, dose: 25.0 mg/kg/injection, schedule: Q01DX009 (ip), vehicle: Klucel (hydroxypropylcellulose) (HPC), higher = longer survival",113 % of control
same,T/C,"endpoint: median survival time, dose: 50.0 mg/kg/injection, schedule: Q01DX009 (ip), vehicle: Klucel (hydroxypropylcellulose) (HPC), higher = longer survival",96 % of control
same,T/C,"endpoint: median survival time, dose: 100.0 mg/kg/injection, schedule: Q01DX009 (ip), vehicle: Klucel (hydroxypropylcellulose) (HPC), higher = longer survival",102 % of control
same,T/C,"endpoint: median survival time, dose: 200.0 mg/kg/injection, schedule: Q01DX009 (ip), vehicle: Klucel (hydroxypropylcellulose) (HPC), higher = longer survival",93 % of control
O=NN(CCCl)C(=O)Nc1ccc(CCCl)cc1,T/C,"endpoint: mean tumor weight, dose: 1.5 mg/kg/injection, schedule: Q01DX001 (ip), vehicle: carboxymethylcellulose (CMC), higher = larger tumour",91 % of control
same,T/C,"endpoint: mean tumor weight, dose: 3.0 mg/kg/injection, schedule: Q01DX001 (ip), vehicle: carboxymethylcellulose (CMC), higher = larger tumour",106 % of control
same,T/C,"endpoint: mean tumor weight, dose: 6.0 mg/kg/injection, schedule: Q01DX001 (ip), vehicle: carboxymethylcellulose (CMC), higher = larger tumour",90 % of control
same,T/C,"endpoint: mean tumor weight, dose: 12.0 mg/kg/injection, schedule: Q01DX001 (ip), vehicle: carboxymethylcellulose (CMC), higher = larger tumour",52 % of control
Oc1cc(O)c2c(c1)O[C@H](c1ccc(O)c(O)c1)[C@@H](O)C2,T/C,[2],76 % of control
same,T/C,[3],94 % of control
same,T/C,[4],72 % of control
same,T/C,[5],74 % of control
O=C(O)c1cc(O)c(O)c(O)c1,T/C,[2],111 % of control
same,T/C,[4],89 % of control
same,T/C,[5],99 % of control
CC1(C)CCC(NC(=O)N(CCF)N=O)CC1,T/C,"endpoint: median survival time, dose: 6.0 mg/kg/injection, schedule: Q01DX009 (ip), vehicle: saline with Tween-80, higher = longer survival",97 % of control
same,T/C,"endpoint: median survival time, dose: 9.0 mg/kg/injection, schedule: Q01DX009 (ip), vehicle: saline with Tween-80, higher = longer survival",113 % of control
same,T/C,"endpoint: median survival time, dose: 20.0 mg/kg/injection, schedule: Q01DX009 (ip), vehicle: saline with Tween-80, higher = longer survival",265 % of control
same,T/C,"endpoint: median survival time, dose: 30.0 mg/kg/injection, schedule: Q01DX009 (ip), vehicle: saline with Tween-80, higher = longer survival",236 % of control
same,T/C,"endpoint: median survival time, dose: 50.0 mg/kg/injection, schedule: Q01DX009 (ip), vehicle: saline with Tween-80, higher = longer survival",88 % of control
CCCCCC(=O)O[C@]1(C(C)=O)CC[C@H]2[C@@H]3CCC4=CC(=O)CC[C@]4(C)[C@H]3CC[C@@]21C,T/C,"endpoint: mean tumor weight, dose: 375.0 mg/kg/injection, schedule: Q01DX011 (sc), vehicle: steriod suspending solution, higher = larger tumour",89 % of control and 99 % of control
same,T/C,"endpoint: mean tumor weight, dose: 750.0 mg/kg/injection, schedule: Q01DX011 (sc), vehicle: steriod suspending solution, higher = larger tumour",91 % of control and 92 % of control
O=c1[nH]c(=O)c2[nH]cnc2[nH]1,T/C,"endpoint: mean tumor weight, dose: 12.5 mg/kg/injection, schedule: Q01DX011 (ip), vehicle: saline, higher = larger tumour",97 % of control
same,T/C,[6],73 % of control
same,T/C,[2],75 % of control and 76 % of control
same,T/C,[3],118 % of control
same,T/C,[4],109 % of control
C=C1CC/C=C(\C)CCC2C1CC2(C)C (centres undefined),T/C,[6],94 % of control
same,T/C,[2],88 % of control
same,T/C,[3],45 % of control
O=c1ccn(C2OC(CO)C(O)C2O)c(=O)[nH]1 (centres undefined),T/C,"endpoint: median survival time, dose: 0.2 mg/kg/injection, schedule: Q01DX011 (adlb), vehicle: water, higher = longer survival",97 % of control and 119 % of control
same,T/C,"endpoint: median survival time, dose: 0.6 mg/kg/injection, schedule: Q01DX011 (adlb), vehicle: water, higher = longer survival",103 % of control
same,T/C,"endpoint: median survival time, dose: 1.0 mg/kg/injection, schedule: Q01DX011 (adlb), vehicle: water, higher = longer survival",86 % of control
same,T/C,"endpoint: median survival time, dose: 1.5 mg/kg/injection, schedule: Q01DX011 (adlb), vehicle: water, higher = longer survival",106 % of control
same,T/C,"endpoint: median survival time, dose: 2.0 mg/kg/injection, schedule: Q01DX011 (adlb), vehicle: water, higher = longer survival",76 % of control and 100 % of control
C=CCCCCCCCCC(=O)O,T/C,[2],92 % of control
same,T/C,[3],91 % of control
same,T/C,[4],56 % of control
same,T/C,[5],84 % of control
Oc1cc(N2CC2)c(O)cc1N1CC1,T/C,"endpoint: median survival time, dose: 0.22 mg/kg/injection, schedule: Q01DX009 (ip), vehicle: saline, higher = longer survival",106 % of control
same,T/C,"endpoint: median survival time, dose: 0.44 mg/kg/injection, schedule: Q01DX009 (ip), vehicle: saline, higher = longer survival",105 % of control
same,T/C,"endpoint: median survival time, dose: 0.68 mg/kg/injection, schedule: Q01DX009 (ip), vehicle: saline, higher = longer survival",110 % of control
same,T/C,[1],90 % of control
